Measured values as given in publication PMC9250534, “Synthesis and direct assay of large macrocycle diversities by combinatorial late-stage modification at picomole scale” (Nature Communications, 2022).

Molecular target: MDM2 (Homo sapiens, UniProt Q00987)
Assay: MDM2 binding screen of Libraries 3 and 4: displacement of fluorescent probe F-M8 at 750 nM macrocycle
In short: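 Cyclic peptide scaffolds were acylated in DMSO with carboxylic acids (20 equiv.), HBTU and DABCO for 6 h at room temperature. Reactions were quenched overnight in 100 mM Tris-Cl pH 7.4, 0.01% Tween20. The fluorescein conjugate was also competed with nutlin-3a.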

[1] = Panel c, Library 4: best nine scaffolds and 15 additional carboxylic acids, displacement of fluorescent probe
[2] = Panel b, Library 3: 63 scaffolds combinatorially acylated with 15 carboxylic acids at 30 picomole scale, displacement of fluorescent peptide probe, macrocycle 750 nM

Chain of MDM2 (Q00987 whole entry): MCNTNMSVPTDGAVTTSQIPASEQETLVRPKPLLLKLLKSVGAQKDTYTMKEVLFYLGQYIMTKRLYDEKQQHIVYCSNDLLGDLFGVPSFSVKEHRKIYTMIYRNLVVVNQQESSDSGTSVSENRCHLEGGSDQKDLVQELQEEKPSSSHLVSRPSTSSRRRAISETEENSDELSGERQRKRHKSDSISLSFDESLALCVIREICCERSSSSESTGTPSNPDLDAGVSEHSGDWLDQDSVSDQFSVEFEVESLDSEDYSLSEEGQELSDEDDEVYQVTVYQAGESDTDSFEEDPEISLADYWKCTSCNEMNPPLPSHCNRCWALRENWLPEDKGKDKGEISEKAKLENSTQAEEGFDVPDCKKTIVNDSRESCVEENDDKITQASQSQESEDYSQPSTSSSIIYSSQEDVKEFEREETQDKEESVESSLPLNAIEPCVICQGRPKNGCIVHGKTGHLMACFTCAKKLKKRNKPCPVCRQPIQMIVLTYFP

SMILES | fraction of fluorescent probe displaced [1] | fraction of fluorescent probe displaced [2]
CC(C)c1ccc(/C=C/C(=O)NC[C@@H]2NC(=O)[C@H]3CCCN(C3)C(=O)CCSSCCNC(=O)[C@H](Cc3c[nH]c4cc(Cl)ccc34)NC2=O)cc1 [X-Nip-Dap-Cl-Trp + Acid 127] | 0.109 | 
O=C1CCSSCCNC(=O)C(Cc2ccc3ccccc3c2)NC(=O)CN(CCNC(=O)C2COc3ccccc3O2)C(=O)C2(CC2)CN1 (mixture of isomers) [X-Amcp-N-Aeg-2-Nal + Acid 115] |  | 0.015
O=C(/C=C/c1ccc(Cl)cc1)NC[C@@H]1NC(=O)[C@H]2CCCN(C2)C(=O)CCSSCCNC(=O)[C@H](Cc2ccc3ccccc3c2)NC1=O [X-Nip-Dap-2-Nal + Acid 108] |  | 0.021
O=C(CCS(=O)(=O)c1ccccc1)NCCN1CC(=O)NC(Cc2cccc3ccccc23)C(=O)NCCSSCCC(=O)N2CCOC(C2)C1=O (centres unmarked) [X-Cop-N-Aeg-1-NaI + Acid 114] |  | 0.015
CC(Oc1cccc(Cl)c1)C(=O)NCC1NC(=O)C2(CC2)CNC(=O)CCSSCCNC(=O)C(Cc2ccc3ccccc3c2)NC1=O (mixture of isomers) [X-Amcp-D-Dap-2-Nal + Acid 113] |  | -0.00533
O=C(NC[C@@H]1NC(=O)[C@@H]2CN(CCO2)C(=O)CCSSCCNC(=O)[C@@H](Cc2c[nH]c3ccccc23)NC1=O)C1COc2ccccc2O1 (stereo partly drawn) [X-Cop-Dap-D-Trp + Acid 115] |  | 0.008
Cn1cc(C[C@@H]2NC(=O)[C@H](CNC(=O)/C=C/c3ccc(Cl)c(Cl)c3)NC(=O)[C@H]3CCCN(C3)C(=O)CCSSCCNC2=O)c2ccccc21 [X-Nip-Dap-Me-Trp + Acid 119] | 0.085 | 
O=C(NC[C@H]1NC(=O)[C@@H]2CN(CCO2)C(=O)CCSSCCNC(=O)[C@H](Cc2c[nH]c3ccccc23)NC1=O)C1COc2ccccc2O1 (stereo partly drawn) [X-Cop-D-Dap-Trp + Acid 115] |  | 0.008
O=C(C=Cc1ccc(Cl)cc1)NCC1NC(=O)C2CN(CCO2)C(=O)CCSSCCNC(=O)C(Cc2c[nH]c3ccccc23)NC1=O [X-Cop-D-Dap-Trp + Acid 108] |  | 0.021
CCOc1ccc(/C=C/C(=O)NC[C@@H]2NC(=O)[C@H]3CCCN(C3)C(=O)CCSSCCNC(=O)[C@H](Cc3c[nH]c4cc(Cl)ccc34)NC2=O)cc1 [X-Nip-Dap-Cl-Trp + Acid 117] | 0.207 | 
Cn1cc(C[C@@H]2NC(=O)CN(CCNC(=O)c3cccc(Oc4ccccc4)c3)C(=O)C3(CC3)CNC(=O)CCSSCCNC2=O)c2ccccc21 [X-Amcp-N-Aeg-Me-Trp + Acid 111] |  | 0.015
O=C(/C=C/c1ccc(OCc2ccccc2)cc1)NCCN1CC(=O)N[C@@H](Cc2c[nH]c3ccccc23)C(=O)NCCSSCCC(=O)NCC2(CC2)C1=O [X-Amcp-N-Aeg-Trp + Acid 110] |  | 0.015
CN1C(=O)CN(CCNC(=O)c2cccc(Oc3ccccc3)c2)C(=O)[C@H]2CCCN(C2)C(=O)CCSSCCNC(=O)[C@@H]1Cc1c[nH]c2ccccc12 [X-Nip-N-Aeg-NMe-Trp + Acid 111] |  | -0.012
O=C1CN(CCNC(=O)c2ccc3ccccc3c2)C(=O)[C@@H]2CN(CCO2)C(=O)CCSSCCNC(=O)[C@H](Cc2c[nH]c3ccccc23)N1 [X-Cop-N-Aeg-Trp + Acid 107] |  | 0.00455
O=C(/C=C/c1ccc2ccccc2c1)NC[C@@H]1NC(=O)[C@H]2CCCN(C2)C(=O)CCSSCCNC(=O)[C@H](Cc2ccc3ccccc3c2)NC1=O [X-Nip-Dap-2-Nal + Acid 112] |  | 0.021
O=C(/C=C/c1ccc(Cl)cc1)NCCN1CC(=O)N[C@@H](Cc2ccc3ccccc3c2)C(=O)NCCSSCCC(=O)NCC2(CC2)C1=O [X-Amcp-N-Aeg-2-Nal + Acid 108] |  | 0.041
Cn1cc(C[C@@H]2NC(=O)[C@H](CNC(=O)c3ccc(Cl)s3)NC(=O)[C@@H]3CN(CCO3)C(=O)CCSSCCNC2=O)c2ccccc21 [X-Cop-Dap-Me-Trp + Acid 14] |  | 0.00133
O=C(/C=C/c1ccc2ccccc2c1)NC[C@@H]1NC(=O)[C@H]2CCCN(C2)C(=O)CCSSCCNC(=O)[C@@H](Cc2c[nH]c3ccccc23)NC1=O [X-Nip-Dap-D-Trp + Acid 112] |  | 0.021
O=C(NC[C@@H]1NC(=O)[C@H]2CCCN(C2)C(=O)CCSSCCNC(=O)[C@@H](Cc2c[nH]c3ccccc23)NC1=O)c1ccc2ccccc2c1 [X-Nip-Dap-D-Trp + Acid 107] |  | 0.044
O=C(/C=C/c1ccc2ccccc2c1)NCCN1CC(=O)N[C@H](Cc2c[nH]c3ccccc23)C(=O)NCCSSCCC(=O)N2CCC[C@@H](C2)C1=O [X-Nip-N-Aeg-D-Trp + Acid 112] |  | 0.055
O=C(/C=C/c1ccncc1)NC[C@@H]1NC(=O)[C@H]2CCCN(C2)C(=O)CCSSCCNC(=O)[C@@H](Cc2c[nH]c3ccccc23)NC1=O [X-Nip-Dap-D-Trp + Acid 106] |  | -0.015
Cn1cc(C[C@@H]2NC(=O)[C@H](CNC(=O)/C=C/c3ccc(Cl)cc3)NC(=O)[C@H]3CCCN(C3)C(=O)CCSSCCNC2=O)c2ccccc21 [X-Nip-Dap-Me-Trp + Acid 108] |  | 0.075

SMILES | fraction of fluorescent probe displaced [1] | fraction of fluorescent probe displaced [2]
CC(Oc1cccc(Cl)c1)C(=O)O (centres unmarked) [Acid 113] |  | -0.00533
O=C(/C=C/c1ccc(OCc2ccccc2)cc1)NC[C@@H]1NC(=O)[C@@H]2CN(CCO2)C(=O)CCSSCCNC(=O)[C@H](Cc2ccc3ccccc3c2)NC1=O [X-Cop-Dap-2-Nal + Acid 110] |  | 0.035
O=C1CN(CCNC(=O)c2ccc(Cl)s2)C(=O)[C@@H]2CN(CCO2)C(=O)CCSSCCNC(=O)[C@H](Cc2cccc3ccccc23)N1 [X-Cop-N-Aeg-1-NaI + Acid 14] |  | -0.025
O=C(O)/C=C/c1ccc(Cl)cc1 [Acid 108] |  | 0.015
CC(Oc1cccc(Cl)c1)C(=O)NCC1NC(=O)C2(CC2)CNC(=O)CCSSCCNC(=O)C(Cc2cn(C)c3ccccc23)NC1=O (mixture of isomers) [X-Amcp-Dap-Me-Trp + Acid 113] |  | 0.008
O=C1CN(CCNC(=O)c2ccc(Cl)s2)C(=O)[C@H]2CCCN(C2)C(=O)CCSSCCNC(=O)[C@H](Cc2c[nH]c3ccccc23)N1 [X-Nip-N-Aeg-Trp + Acid 14] |  | -0.00533
O=C(/C=C/c1ccc(OCc2ccccc2)cc1)NCCN1CC(=O)N[C@@H](Cc2cccc3ccccc23)C(=O)NCCSSCCC(=O)N2CCC[C@@H](C2)C1=O [X-Nip-N-Aeg-1-NaI + Acid 110] |  | -0.00533
CN1C(=O)[C@@H](CNC(=O)/C=C/c2ccc(OCc3ccccc3)cc2)NC(=O)[C@H]2CCCN(C2)C(=O)CCSSCCNC(=O)[C@@H]1Cc1c[nH]c2ccccc12 [X-Nip-D-Dap-NMe-Trp + Acid 110] |  | -0.00533
O=C(CCS(=O)(=O)c1ccccc1)NCCN1CC(=O)N[C@@H](Cc2cccc3ccccc23)C(=O)NCCSSCCC(=O)N2CCC[C@@H](C2)C1=O [X-Nip-N-Aeg-1-NaI + Acid 114] |  | 0.008
CC(Oc1cccc(Cl)c1)C(=O)NCC1NC(=O)C2CCCN(C2)C(=O)CCSSCCNC(=O)C(Cc2c[nH]c3ccccc23)NC1=O (mixture of isomers) [X-Nip-Dap-Trp + Acid 113] |  | -0.00533
CN1C(=O)[C@H](CNC(=O)c2ccc(Cl)cc2)NC(=O)C2(CC2)CNC(=O)CCSSCCNC(=O)[C@@H]1Cc1c[nH]c2ccccc12 [X-Amcp-Dap-NMe-Trp + Acid 25] |  | 0.00133
CC(Oc1cccc(Cl)c1)C(=O)NC[C@H]1NC(=O)C2(CC2)CNC(=O)CCSSCCNC(=O)[C@H](Cc2cccc3ccccc23)NC1=O (stereo partly drawn) [X-Amcp-D-Dap-1-NaI + Acid 113] |  | -0.00533
O=C(/C=C/c1ccc2ccccc2c1)NC[C@@H]1NC(=O)[C@@H]2CN(CCO2)C(=O)CCSSCCNC(=O)[C@@H](Cc2c[nH]c3ccccc23)NC1=O [X-Cop-Dap-D-Trp + Acid 112] |  | 0.028
O=C(O)/C=C/c1ccc(F)cc1 [Acid 116] | 0.036 | 
O=C1CN(CCNC(=O)c2ccc3ccccc3c2)C(=O)[C@H]2CCCN(C2)C(=O)CCSSCCNC(=O)[C@H](Cc2ccc3ccccc3c2)N1 [X-Nip-N-Aeg-2-Nal + Acid 107] |  | 0.011
O=C(/C=C/c1ccc2ccccc2c1)NCCN1CC(=O)N[C@@H](Cc2c[nH]c3ccccc23)C(=O)NCCSSCCC(=O)NCC2(CC2)C1=O [X-Amcp-N-Aeg-Trp + Acid 112] |  | 0.041
O=C(NC[C@H]1NC(=O)[C@@H]2CN(CCO2)C(=O)CCSSCCNC(=O)[C@H](Cc2ccc3ccccc3c2)NC1=O)c1ccc(Cl)s1 [X-Cop-D-Dap-2-Nal + Acid 14] |  | -0.00533
O=C(/C=C/c1ccc(OCc2ccccc2)cc1)NC[C@H]1NC(=O)[C@H]2CCCN(C2)C(=O)CCSSCCNC(=O)[C@H](Cc2ccc3ccccc3c2)NC1=O [X-Nip-D-Dap-2-Nal + Acid 110] |  | 0.008
CC(Oc1cccc(Cl)c1)C(=O)NC[C@H]1NC(=O)[C@H]2CCCN(C2)C(=O)CCSSCCNC(=O)[C@H](Cc2c[nH]c3ccccc23)NC1=O (stereo partly drawn) [X-Nip-D-Dap-Trp + Acid 113] |  | -0.019
O=C(/C=C/c1ccc(OCc2ccccc2)cc1)NCCN1CC(=O)N[C@H](Cc2c[nH]c3ccccc23)C(=O)NCCSSCCC(=O)NCC2(CC2)C1=O [X-Amcp-N-Aeg-D-Trp + Acid 110] |  | 0.015
Cn1cc(C[C@@H]2NC(=O)[C@@H](CNC(=O)c3ccc(Cl)cc3)NC(=O)C3(CC3)CNC(=O)CCSSCCNC2=O)c2ccccc21 [X-Amcp-D-Dap-Me-Trp + Acid 25] |  | -0.00533
O=C(CCS(=O)(=O)c1ccccc1)NCCN1CC(=O)N[C@@H](Cc2ccc3ccccc3c2)C(=O)NCCSSCCC(=O)NCC2(CC2)C1=O [X-Amcp-N-Aeg-2-Nal + Acid 114] |  | 0.028
